Laboratory results as given in PMC11050816, “Pharmacokinetics and Safety of Lurbinectedin Administrated with Itraconazole in Cancer Patients: A Drug–Drug Interaction Study” (Marine Drugs, 2024).

Assays:
[1] = Plasma pharmacokinetics of lurbinectedin metabolites M1 and M4 (metabolite/parent ratio) with and without itraconazole
Method: The study consisted of two parts. In Part A, three patients were sequentially enrolled to receive Sequence 1 (TR: Test–Reference) consisting of itraconazole (200 mg […]; once-daily for 12 days) co-administered with lurbinectedin (0.8 mg/m^2, 1 h, IV infusion q3wk) (Cycle 1), followed by two consecutive cycles (Cycles 2 and 3) of lurbinectedin alone (3.2 mg/m^2, 1 h, IV infusion q3wk), with the third cycle being optional. In Part B, patients were randomized (in a ratio 1:1, using sequence a block randomization implemented with Medidata Rave Randomization and Trial Supply Management [RTSM]) to receive either Sequence 1 (TR: Test–Reference), but with lurbinectedin 0.9 mg/m^2, 1 h, IV when co-administered with itraconazole, or Sequence 2 (RT: Reference–Test) of lurbinectedin alone (Cycle 1), followed by itraconazole and lurbinectedin co-administration (Cycle 2), with lurbinectedin alone (optional Cycle 3) (see Figure 2 above).
The itraconazole dose (200 mg) was selected based on the published literature for the design of clinical drug–drug interaction studies with itraconazole. In the co-administration cycles, itraconazole was administered as 200 mg (2 × 100 mg capsules) once-daily doses in the morning after breakfast for 12 consecutive days, self-administered at home starting from […] (i.e., four days before lurbinectedin infusion) to Day 8 (i.e., seven days after lurbinectedin infusion), following recommendations from the Summary of Product Characteristics. On Day 1 (day of lurbinectedin infusion), itraconazole was given immediately prior to the start of the lurbinectedin infusion. In fact, itraconazole had to be administered after collecting the first itraconazole PK sample and before the start of lurbinectedin infusion (−15 min to −1 min). In case of lurbinectedin delay (≤2 days), itraconazole could be administered for a maximum of 14 days (Figure 6). In Sequence 1 (TR), itraconazole for self-administration and the patient’s diary were given to the patient on Day −5 with a −2/+1 daytime window (i.e., from Day −7 to Day −4). In Sequence 2 (RT), itraconazole and the patient’s diary were given to the patient on Day −5 of Cycle 2 with a −2/+1 daytime window (i.e., from Day 15 of Cycle 1 to Day −4 of Cycle 2).
The impact of itraconazole on the lurbinectedin PK profile compared with that of lurbinectedin alone was evaluated using the primary study PK endpoints: Cmax and AUC0–∞ of total plasma lurbinectedin. Other secondary PK endpoints included AUC0–t, total plasma CL, t1/2, and the volume of distribution at steady state (Vss). The following unbound parameters were also estimated: AUCu,0–∞, AUCu,0–t, Cu,max, CLu, Vss,u, and t1/2,u. Plasma PK parameters were calculated with a standard non–compartmental analysis approach using Phoenix® WinNonlin® v6.4 (Certara USA, Inc., Princeton, NJ, USA).
Serial peripheral venous blood samples for the lurbinectedin PK analysis (and its metabolites M1 and M4) were collected in Cycle 1 and Cycle 2 (Sequences 1 and 2), with a schedule of thirteen samples in all patients as follows: at pre-dose, 5 min prior to the end of the lurbinectedin infusion, and at 0.5, 1, 2, 4, 6, 24, 48, 96, 168, 241, and 337 h post-dose on Days 1, 2, 3, 5, 8, 11, and 15. Only in Part B (Sequence 2) was a blood sampling test at 505 h post-lurbinectedin dosing to be collected before the lurbinectedin infusion started on Day 1 of Cycle 3, if detectable lurbinectedin concentrations were present in the pre-infusion sample in Cycle 2 of Part A. Blood samples for the PK analysis of itraconazole (and its active metabolite, hydroxy-itraconazole) were collected in cycles with itraconazole co-administration (i.e., Cycle 1 of Part A and B [Sequence 1] and Cycle 2 of Part B [Sequence 2]) at pre-dose and at 1, 2, 4, 24, and 168 h post-itraconazole dosing on Days 1, 2, and 8.

[2] = cited from earlier work
[3] = co-administration with itraconazole compared with lurbinectedin alone
[4] = treatment LRB alone (R), dose-normalized, n = 8
[5] = lurbinectedin + itraconazole divided by lurbinectedin alone

Compound	Conversion of lurbinectedin to the metabolite [1, 3]	Metabolite/parent ratio (MPR) of AUC0–t, geometric mean (CV%) ([1]; human, in vivo)	Metabolite/parent ratio (MPR) of Cmax, geometric mean (CV%) ([1]; human, in vivo)	Metabolite/parent ratio (MPR) of AUC0–t, geometric mean (CV%) [1, 4]	Metabolite/parent ratio (MPR) of Cmax, geometric mean (CV%) [1, 4]	Reduction of the conversion of lurbinectedin to the metabolite [1, 3]	MPR of AUC0–t, least-squares geometric mean ratio [1, 5]	MPR of Cmax, least-squares geometric mean ratio [1, 5]	Mild and transient liver enzymes elevations, patients ([2]; chronic dosing)	Risk of QTc prolongation in the electrocardiogram ([2]; especially at ≤200 mg once a day, in vitro data and clinical experience)
1′,3′–dihydroxy–lurbinectedin [M1]	almost completely inhibited	0.74 (NA) µg·h/L/mg	0.38 (NA) µg/L/mg	0.48 (360.01) µg·h/L/mg	0.29 (135.88) µg/L/mg					
COc1ccc2[nH]c3c(c2c1)CCN[C@]31CS[C@@H]2c3c(OC(C)=O)c(C)c4c(c3[C@H](COC1=O)N1[C@@H]2[C@@H]2N[C@@H](Cc3cc(C)c(OC)c(O)c32)[C@@H]1O)OCO4 [M4, N–desmethyl–lurbinectedin]		1.29 (209.58) µg·h/L/mg	0.61 (47.57) µg/L/mg	1.45 (135.58) µg·h/L/mg	0.49 (60.3) µg/L/mg	69%	31.53%	92.47%		
CCC(C)n1ncn(-c2ccc(N3CCN(c4ccc(OCC5COC(Cn6cncn6)(c6ccc(Cl)cc6Cl)O5)cc4)CC3)cc2)c1=O (centres unmarked) [itraconazole]									< 5%	low
